Results from the supplement of paper PMC8671470.

Experiments:
Conditions in all cases: 72 h
HL-60 [1] = experiment: cell viability (% survival relative to DMSO control); higher = less cytotoxic
Summary of the method: (§1)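 HL-60 cells in RPMI 1640 with 10% FBS were rescreened against the full library on 384-well plates at five tenfold concentrations, 1–10,000 nM, in duplicate. Each screen was run with DMSO or 100 nM of one of three metabolic inhibitors, for 72 h at 37 °C, 5% CO2. Viability was read by CellTiter-Glo and normalised to DMSO and 10 μM proteasome-inhibitor wells. Where given, area under the curve came from four-parameter log-logistic fits (drc, PharmacoGx).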

[2] = system: myeloid leukemia patient primary cells Pat.12; experiment: area under dose-response curve (viability, 1 nM-10 uM) (fraction (0-1)); higher = more sensitive
Method: (§2)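 AUC (0–1, higher = more sensitive) of the 5-point dose–response (1 nM–10 µM, 72 h, CellTiter-Glo) in primary AML/CML patient mononuclear cells. 0.030103 is the floor for inactive compounds.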

[3] = system: myeloid leukemia patient primary cells Pat.4; experiment: as above
Method: as §2

[4] = system: myeloid leukemia patient primary cells Pat.3; experiment: as above
Method: as §2

[5] = system: myeloid leukemia patient primary cells Pat.1; experiment: as above
Method: as §2

[6] = system: myeloid leukemia patient primary cells Pat.13; experiment: as above
Method: as §2

[7] = system: myeloid leukemia patient primary cells Pat.2; experiment: as above
Method: as §2

[8] = system: myeloid leukemia patient primary cells Pat.15; experiment: as above
Method: as §2

[9] = system: myeloid leukemia patient primary cells Pat.14; experiment: as above
Method: as §2

[10] = system: myeloid leukemia patient primary cells Pat.8; experiment: as above
Method: as §2

[11] = system: myeloid leukemia patient primary cells Pat.7; experiment: as above
Method: as §2

[12] = system: myeloid leukemia patient primary cells Pat.11; experiment: as above
Method: as §2

[13] = system: myeloid leukemia patient primary cells Pat.10; experiment: as above
Method: as §2

[14] = system: myeloid leukemia patient primary cells Pat.6; experiment: as above
Method: as §2

[15] = system: myeloid leukemia patient primary cells Pat.5; experiment: as above
Method: as §2

[16] = system: myeloid leukemia patient primary cells Pat.9; experiment: as above
Method: as §2

HL-60 [17] = experiment: area under dose-response curve (viability, 1 nM-10 uM) (fraction (0-1)); higher = more sensitive
Summary of the method: as §1

[18] = system: myeloid leukemia patient primary cells Pat.2; experiment: cell viability (% survival relative to DMSO control); higher = less cytotoxic
Summary of the method: (§3)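 Mononuclear cells from patients with AML or CML were thawed, purified on Ficoll and placed in RPMI 1640 with 10% FBS at 10,000 cells/well on 384-well plates. The plates came pre-printed with 70 compounds at five tenfold concentrations spanning 1–10,000 nM, in duplicate, and cells were exposed for 72 h. CellTiter-Glo gave viability, scaled between DMSO wells and wells with 10 μM proteasome inhibitor. Where reported, area under the curve was obtained from log-logistic fits with four parameters using the drc and PharmacoGx R packages.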

[19] = system: myeloid leukemia patient primary cells Pat.15; experiment: as above
Summary of the method: as §3

[20] = system: myeloid leukemia patient primary cells Pat.7; experiment: as above
Summary of the method: as §3

[21] = system: myeloid leukemia patient primary cells Pat.11; experiment: as above
Summary of the method: as §3

[22] = system: myeloid leukemia patient primary cells Pat.10; experiment: as above
Summary of the method: as §3

[23] = system: myeloid leukemia patient primary cells Pat.6; experiment: as above
Summary of the method: as §3

Cc1cc2c(C(C)C)c(O)c(O)c(C=O)c2c(O)c1-c1c(C)cc2c(C(C)C)c(O)c(O)c(C=O)c2c1O [Gossypol]
cell viability [%], HL-60 [1]
Conditions | 0.001 µM | 0.01 µM | 0.1 µM | 1 µM | 10 µM
co-treatment: AZD3965 100 nM | 101 | 106 | 96.1 | 102 | 2.22
co-treatment: DMSO vehicle | 101 | 104 | 96.3 | 102 | 2.19
co-treatment: GSK2194069 100 nM | 107 | 104 | 90 | 87.6 | 2.81
co-treatment: pictilisib 100 nM | 104 | 100 | 93.97 | 91.4 | 1.94

Conditions | area under dose-response curve
[2] | 0.0353
[3] | 0.117
[4] | 0.428
[5] | 0.135
[6] | 0.107
[7] | 0.112
[8] | 0.0654
[9] | 0.386
[10] | 0.123
[11] | 0.476
[12] | 0.135
[13] | 0.641
[14] | 0.0898
[15] | 0.712
[16] | 0.803

Conditions | area under dose-response curve, co-treatment: AZD3965 100 nM | area under dose-response curve, co-treatment: DMSO vehicle | area under dose-response curve, co-treatment: GSK2194069 100 nM | area under dose-response curve, co-treatment: pictilisib 100 nM | cell viability, 1 nM [%] | cell viability, 10 nM [%] | cell viability, 100 nM [%] | cell viability, 1000 nM [%] | cell viability, 10000 nM [%]
HL-60 [17] | 0.123 | 0.124 | 0.154 | 0.145 | – | – | – | – | –
[18] | – | – | – | – | 96.6 | 92.2 | 93 | 80 | 34.6
[19] | – | – | – | – | 98.2 | 85.9 | 89.7 | 95.7 | 27.3
[20] | – | – | – | – | 72.1 | 28.8 | 60.8 | < 0 | < 0
[21] | – | – | – | – | 98.5 | 98.9 | 91.9 | 84.6 | 11.6
[22] | – | – | – | – | 89.2 | 41.6 | 43.3 | 2.16 | 89.9
[23] | – | – | – | – | 99.8 | 80.8 | 84.4 | 83.7 | 20.9

CC(C)(C)c1ccc(S(=O)(=O)NCc2ccc(C(=O)Nc3cccnc3)cc2)cc1 [STF-31]
cell viability [%], HL-60 [1]
Conditions | 0.001 µM | 0.01 µM | 0.1 µM | 1 µM | 10 µM
co-treatment: AZD3965 100 nM | 104 | 95.82 | 94.3 | 20.9 | 2.06
co-treatment: DMSO vehicle | 104 | 94.1 | 108 | 10.1 | 4.63
co-treatment: GSK2194069 100 nM | 101 | 98.62 | 99.7 | 6.72 | 2.51
co-treatment: pictilisib 100 nM | 100 | 93.2 | 105 | 18 | 3.08

Conditions | area under dose-response curve
[2] | 0.366
[3] | 0.567
[4] | 0.745
[5] | 0.267
[6] | 0.358
[7] | 0.367
[8] | 0.375
[9] | 0.653
[10] | 0.433
[11] | 0.66
[12] | 0.368
[13] | 0.449
[14] | 0.357
[15] | 0.896
[16] | 0.8

Conditions | area under dose-response curve, co-treatment: AZD3965 100 nM | area under dose-response curve, co-treatment: DMSO vehicle | area under dose-response curve, co-treatment: GSK2194069 100 nM | area under dose-response curve, co-treatment: pictilisib 100 nM | cell viability, 1 nM [%] | cell viability, 10 nM [%] | cell viability, 100 nM [%] | cell viability, 1000 nM [%] | cell viability, 10000 nM [%]
HL-60 [17] | 0.328 | 0.342 | 0.362 | 0.324 | – | – | – | – | –
[18] | – | – | – | – | 98.4 | 96.8 | 84.9 | 13.2 | 11.4
[19] | – | – | – | – | 87.8 | 90.9 | 89.8 | 2.3 | 1.11
[20] | – | – | – | – | 80.1 | 62.7 | 7.78 | < 0 | < 0
[21] | – | – | – | – | 95.5 | 92.3 | 99.3 | 2.57 | 1.37
[22] | – | – | – | – | 56.6 | 35 | 64.9 | < 0 | 4.94
[23] | – | – | – | – | 98 | 85.7 | 71.1 | 21.7 | 28.8

CO[C@H]1C[C@@H]2CC[C@@H](C)[C@@](O)(O2)C(=O)C(=O)N2CCCC[C@H]2C(=O)O[C@H]([C@H](C)C[C@@H]2CC[C@@H](OC(=O)C(C)(CO)CO)[C@H](OC)C2)CC(=O)[C@H](C)/C=C(\C)[C@@H](O)[C@@H](OC)C(=O)[C@H](C)C[C@H](C)/C=C/C=C/C=C/1C [Temsirolimus]
cell viability [%], HL-60 [1]
Conditions | 0.001 µM | 0.01 µM | 0.1 µM | 1 µM | 10 µM
co-treatment: AZD3965 100 nM | 99.9 | 97.186 | 101 | 92.3 | 86.7
co-treatment: DMSO vehicle | 101 | 96.3 | 97.65 | 90.3 | 100
co-treatment: GSK2194069 100 nM | 92.3 | 87.52 | 103.1 | 83.261 | 96.5
co-treatment: pictilisib 100 nM | 94.1 | 81 | 99.1 | 81.02 | 91.4

Conditions | area under dose-response curve
[2] | < 0.0301
[3] | 0.206
[4] | 0.123
[5] | 0.0628
[6] | < 0.0301
[7] | < 0.0301
[8] | 0.584
[9] | 0.142
[10] | < 0.0301
[11] | 0.146
[12] | < 0.0301
[13] | 0.123
[14] | < 0.0301
[15] | 0.798
[16] | 0.608

Conditions | area under dose-response curve, co-treatment: AZD3965 100 nM | area under dose-response curve, co-treatment: DMSO vehicle | area under dose-response curve, co-treatment: GSK2194069 100 nM | area under dose-response curve, co-treatment: pictilisib 100 nM | cell viability, 1 nM [%] | cell viability, 10 nM [%] | cell viability, 100 nM [%] | cell viability, 1000 nM [%] | cell viability, 10000 nM [%]
HL-60 [17] | < 0.0301 | < 0.0301 | < 0.0301 | < 0.0301 | – | – | – | – | –
[18] | – | – | – | – | 79.1 | 69 | 69.6 | 80.6 | 63
[19] | – | – | – | – | 69.7 | 47.8 | 38.4 | 39.2 | 21.8
[20] | – | – | – | – | 77.4 | 68.2 | 55.9 | 73.9 | < 0
[21] | – | – | – | – | 94.5 | 81.9 | 79.7 | 88.4 | 74.4
[22] | – | – | – | – | 47.2 | 40.6 | 42.5 | 78.8 | 4.58
[23] | – | – | – | – | 99.3 | 88.2 | 77.1 | 96.8 | 55.5
